Test results: PMC4264749, “Phlebotomy Treatment for Elimination of Perfluoroalkyl Acids in a Highly Exposed Family: A Retrospective Case-Series” (PLoS ONE, 2014)
Like-named read-outs stand apart in the source and are kept apart here.

Legend:
[1] = Serum PFAA concentrations in family members during intermittent phlebotomy (HPLC-MS/MS); format: in vivo, human; settings: for Serum concentration before treatment: before phlebotomy
Source text: After receiving informed consent, intermittent phlebotomy was undertaken at an overall rate (Table 2) that was equal to or less than the maximum rate of what is done for routine blood donations at the Canadian Blood Services: ∼500 ccs of whole blood every 56 days. Frequency and timing of blood removal was not consistent between family members because of their personal availability, success at each time of venesection, and compliance of each participant. […] Mineral supplementation was discussed and was taken by each participant.
All serum samples were submitted to ALS Laboratories (Edmonton, AB) for quantitative analysis of PFAAs (see Supporting Information, S1 Table). Samples were extracted by solid phase extraction and concentrations of PFHxS, PFOS, and PFOA were determined using high performance liquid chromatography/tandem mass spectrometry. Formic acid (0.1 M) along with a mixture of isotopically labeled PFAAs (Wellington Laboratories, Guelph, Ontario) were added to 1.0 mL of serum. The mixture was vortexed, sonicated, and subjected to solid phase extraction. The extract was concentrated to 100 uL and an instrument performance internal standard was added along with 200 uL of 90% 20 mM aqueous acetic acid/10% methanol. Procedural blanks were run with each set of samples, and method limits of quantification (LOQ) were 0.5 ng/mL for each analyte. For the few PFAA levels that fell below this LOQ (shown as hollow circles in Figs. 1–3), LOQ/√2 (i.e. 0.35 ng/mL) was substituted for purposes of data analysis. PFHxS, PFOS, and PFOA levels in all participating family members were >LOQ throughout the intervention except for 3 PFOS measurements out of 16 total measurements in the 3rd child and one PFOA measurement out of 9 total measurements in the […]. Written informed consent was given by participants (or parents in the case of children) for their clinical records to be used in this study.

[2] = Apparent elimination half-life (HLapp) and phlebotomy efficiency coefficient in treated family members; format: in vivo, human; settings: family members with regular phlebotomy, except parent
Source text: To evaluate the effect of phlebotomy, versus the expected rate of intrinsic elimination, we graphically and statistically compared the observed decreasing trends in each family member (fitted to a simple exponential decay model) with reference population elimination kinetics. Specifically, for the reference population of occupationally exposed retirees, we considered: i) the 95% confidence interval of the geometric mean elimination rate for each PFAA, and ii) the fastest individual rate of elimination rate among the reference population. For comparative purposes, the concentration of each PFAA in serum on the first day of the intervention was taken as time zero, and the models were forced through this starting point.
One metric that was calculated to compare the efficiency of the phlebotomy for removal of different PFAAs in each family member was termed the phlebotomy efficiency coefficient (EC). This was based on the subtractive difference between HLapp (yrs) in each treated family member and the geometric mean HLin (yrs) of the reference population according to Equation 1 . [drawing 1] (1)

[3] = design: method as in PMID 17805419; settings: cited from earlier work
[4] = design: method as in PMID 23980546; settings: urinary excretion, China, cited from earlier work
[5] = design: method as in earlier work; settings: 2009–2011; cited from earlier work

O=S(=O)(O)C(F)(F)C(F)(F)C(F)(F)C(F)(F)C(F)(F)C(F)(F)F [PFHxS, Perfluorohexane sulfonate]
Serum concentration before treatment ([1]; 1st Child): 78.6 ng/mL
Serum concentration ([1]; 1st Child, sampling date 2009.10.12): 51.9 ng/mL
Serum concentration ([1]; 1st Child, sampling date 2009.12.24): 40.5 ng/mL
Serum concentration ([1]; 1st Child, sampling date 2009.6.9): 78.6 ng/mL
Serum concentration ([1]; 1st Child, sampling date 2009.9.9): 39.0 ng/mL
Serum concentration ([1]; 1st Child, sampling date 2010.10.14): 51.9 ng/mL
Serum concentration ([1]; 1st Child, sampling date 2010.1.17): 30.3 ng/mL
Serum concentration ([1]; 1st Child, sampling date 2010.2.11): 25.3 ng/mL
Serum concentration ([1]; 1st Child, sampling date 2010.4.14): 29.9 ng/mL
Serum concentration ([1]; 1st Child, sampling date 2011.12.5): 10.0 ng/mL
Serum concentration ([1]; 1st Child, sampling date 2011.5.17, LOD=0.5ng/mL): 31.8 ng/mL
Serum concentration ([1]; 1st Child, sampling date 2011.8.12, LOD=0.5ng/mL): 27.8 ng/mL
Serum concentration ([1]; 1st Child, sampling date 2012.12.28, LOD=0.5ng/mL): 21.7 ng/mL
Serum concentration ([1]; 1st Child, sampling date 2012.4.24): 32.7 ng/mL
Serum concentration ([1]; 1st Child, sampling date 2012.8.21): 25.1 ng/mL
Serum concentration ([1]; 1st Child, sampling date 2013.3.30): 18.1 ng/mL
Serum concentration ([1]; 1st Child, sampling date 2013.7.30): 11.9 ng/mL
Serum concentration before treatment ([1]; 2nd Child): 140 ng/mL
Serum concentration ([1]; 2nd Child, sampling date 2009.10.24): 97.5 ng/mL
Serum concentration ([1]; 2nd Child, sampling date 2009.6.6): 140.0 ng/mL
Serum concentration ([1]; 2nd Child, sampling date 2009.7.2): 124.0 ng/mL
Serum concentration ([1]; 2nd Child, sampling date 2009.7.30): 132.0 ng/mL
Serum concentration ([1]; 2nd Child, sampling date 2009.8.24): 162.0 ng/mL
Serum concentration ([1]; 2nd Child, sampling date 2009.9.27): 67.2 ng/mL
Serum concentration ([1]; 2nd Child, sampling date 2010.1.3): 57.9 ng/mL
Serum concentration ([1]; 2nd Child, sampling date 2010.2.15): 44.7 ng/mL
Serum concentration ([1]; 2nd Child, sampling date 2011.10.2): 47.4 ng/mL
Serum concentration ([1]; 2nd Child, sampling date 2011.12.24): 43.2 ng/mL
Serum concentration ([1]; 2nd Child, sampling date 2011.4.27): 72.3 ng/mL
Serum concentration ([1]; 2nd Child, sampling date 2011.8.14): 63.0 ng/mL
Serum concentration ([1]; 2nd Child, sampling date 2012.12.24): 78.7 ng/mL
Serum concentration ([1]; 2nd Child, sampling date 2012.4.6): 48.3 ng/mL
Serum concentration ([1]; 2nd Child, sampling date 2013.5.11.): 34.8 ng/mL
Serum concentration ([1]; 2nd Child, sampling date 2013.7.15): 27.1 ng/mL
Serum concentration before treatment ([1]; 3rd Child): 293 ng/mL
Serum concentration ([1]; 3rd Child, sampling date 2010.3.12): 168.0 ng/mL
Serum concentration ([1]; 3rd Child, sampling date 2010.5.23): 85.2 ng/mL
Serum concentration ([1]; 3rd Child, sampling date 2011.1.6): 98.7 ng/mL
Serum concentration ([1]; 3rd Child, sampling date 2011.11.26): 31.2 ng/mL
Serum concentration ([1]; 3rd Child, sampling date 2011.2.24): 114.0 ng/mL
Serum concentration ([1]; 3rd Child, sampling date 2011.4.30): 82.8 ng/mL
Serum concentration ([1]; 3rd Child, sampling date 2011.6.13): 92.0 ng/mL
Serum concentration ([1]; 3rd Child, sampling date 2011.9.27): 108.0 ng/mL
Serum concentration ([1]; 3rd Child, sampling date 2012.10.16): 63.9 ng/mL
Serum concentration ([1]; 3rd Child, sampling date 2012.1.8): 51.0 ng/mL
Serum concentration ([1]; 3rd Child, sampling date 2012.12.9): 95.4 ng/mL
Serum concentration ([1]; 3rd Child, sampling date 2012.3.4): 61.5 ng/mL
Serum concentration ([1]; 3rd Child, sampling date 2012.4.28): 110.0 ng/mL
Serum concentration before treatment ([1]; 4th Child): 167 ng/mL
starting serum concentration relative to 95th centile among Canadians ([1]; 4th child (4th child)): ~20 fold
Serum concentration after treatment ([1]; Average of 6 family members, after phlebotomy): 23.3 ng/mL
Serum concentration before treatment ([1]; Average of 6 family members): 125 ng/mL
Serum concentration before treatment ([1]; Parent one): 44.1 ng/mL
Serum concentration ([1]; Parent one, sampling date 2009.10.11): 20.3 ng/mL
Serum concentration ([1]; Parent one, sampling date 2009.10.12): 25.0 ng/mL
Serum concentration ([1]; Parent one, sampling date 2009.11.12): 29.5 ng/mL
Serum concentration ([1]; Parent one, sampling date 2009.12.14): 35.4 ng/mL
Serum concentration ([1]; Parent one, sampling date 2009.2.2): 44.1 ng/mL
Serum concentration ([1]; Parent one, sampling date 2009.5.18): 35.0 ng/mL
Serum concentration ([1]; Parent one, sampling date 2009.6.1): 41.7 ng/mL
Serum concentration ([1]; Parent one, sampling date 2009.7.4): 26.8 ng/mL
Serum concentration ([1]; Parent one, sampling date 2009.9.1): 43.5 ng/mL
Serum concentration ([1]; Parent one, sampling date 2010.10.10): 22.4 ng/mL
Serum concentration ([1]; Parent one, sampling date 2010.1.17): 34.5 ng/mL
Serum concentration ([1]; Parent one, sampling date 2010.3.13): 21.2 ng/mL
Serum concentration ([1]; Parent one, sampling date 2011.1.6): 19.2 ng/mL
Serum concentration ([1]; Parent one, sampling date 2011.11.26): 8.7 ng/mL
Serum concentration ([1]; Parent one, sampling date 2011.2.24): 13.1 ng/mL
Serum concentration ([1]; Parent one, sampling date 2011.4.30): 18.8 ng/mL
Serum concentration ([1]; Parent one, sampling date 2011.6.22): 16.9 ng/mL
Serum concentration ([1]; Parent one, sampling date 2011.8.4): 18.0 ng/mL
Serum concentration ([1]; Parent one, sampling date 2011.9.27): 25.7 ng/mL
Serum concentration ([1]; Parent one, sampling date 2012..12.28): 17.4 ng/mL
Serum concentration ([1]; Parent one, sampling date 2012.1.14): 21.5 ng/mL
Serum concentration ([1]; Parent one, sampling date 2012.11.1): 19.1 ng/mL
Serum concentration ([1]; Parent one, sampling date 2012.3.4): 19.5 ng/mL
Serum concentration ([1]; Parent one, sampling date 2012.4.29): 23.1 ng/mL
Serum concentration ([1]; Parent one, sampling date 2012.7.8): 18.3 ng/mL
Serum concentration ([1]; Parent one, sampling date 2012.8.21): 21.7 ng/mL
Serum concentration ([1]; Parent one, sampling date 2013.10.27): 8.8 ng/mL
Serum concentration ([1]; Parent one, sampling date 2013.2.18): 15.7 ng/mL
Serum concentration ([1]; Parent one, sampling date 2013.3.30): 16.0 ng/mL
Serum concentration ([1]; Parent one, sampling date 2013.5.11): 13.1 ng/mL
Serum concentration ([1]; Parent one, sampling date 2013.7.15): 7.8 ng/mL
Serum concentration ([1]; Parent one, sampling date 2013.9.8): 18.2 ng/mL
Serum concentration before treatment ([1]; Parent two): 29.3 ng/mL
Serum concentration ([1]; Parent two, sampling date 2009.6.1): 29.3 ng/mL
Serum concentration ([1]; Parent two, sampling date 2009.7.7): 21.3 ng/mL
Serum concentration ([1]; Parent two, sampling date 2009.8.24): 19.5 ng/mL
Serum concentration ([1]; Parent two, sampling date 2010.1.3): 16.3 ng/mL
Serum concentration ([1]; Parent two, sampling date 2010.4.11, LOD=0.5ng/mL): 17.8 ng/mL
Serum concentration ([1]; Parent two, sampling date 2012.3.13): 16.1 ng/mL
Serum concentration ([1]; Parent two, sampling date 2013.1.1): 13.2 ng/mL
Serum concentration ([1]; Parent two, sampling date 2013.10.6): 13.5 ng/mL
Serum concentration ([1]; Parent two, sampling date 2013.6.22): 9.1 ng/mL
HLapp compared with geometric mean HLin of reference population [2]: significantly shorter
HLin of fastest eliminator in the reference population ([3]; reference population of occupationally exposed retirees (26 individuals)): 2.2 yrs
95% confidence interval of the geometric mean HLin ([3]; reference population of occupationally exposed retirees): 5.8–9.2 yrs
intrinsic human elimination half-life (HLin) ([3]; serum, highly contaminated retirees >55 yrs, previously occupationally exposed): 8.5 years
HLin, 95% confidence interval ([3]; serum, retirees >55 yrs, previously occupationally exposed): 6.4–10.6 yrs
HLapp ([4]; males and post-menopausal females): 35 years
HLapp ([4]; reproductive-aged females): 7.7 years
95th percentile of serum concentration among Canadians [5]: 8.9 ng/mL
